Read-outs that look alike come from different tables or passages of the source. Where only a bound is given, the exact number is not on record here.

These results are taken from patent publication US11453689B2, “3-pyrrolidine-indole derivatives as serotonergic psychedelic agents for the treatment of CNS disorders” (Mindset Pharma Inc., priority 2020, dated 2022).

The target in series [1] is human 5-HT2A (h5-HT2A) receptor (Homo sapiens (Human), UniProt P28223). Description: FLIPR calcium assay, human 5-HT2A receptor, agonist mode. In kind it is cell-based. As to the method: I. Assessment of the Activated Effect of Exemplary Compounds of Formula I Targeting on Human 5-HT2A (h5-HT2A) Receptor Under Agonist Mode:
1. Culture the cells in cell culture medium (DMEM containing 10% FBS, 1× penicillin-streptomycin 300 μg/ml G418 and 100 μg/ml hygromycin B) at 37° C., 5% (v/v) CO2.
2. One day before the assays, detach the cell using TrypLE™ Express and count cells using cell counter.
3. Seed 20000 cells/well in 30 μl/well culture medium to a 384-well cell plate and incubate the cells overnight at 37° C., 5% (v/v) CO2.
4. On the assay day, prepare 2×dye solution following the manual of the FLIPR® Calcium 6 Assay Kit: i. Dilute the dye with assay buffer(20 mM HEPES in 1× HBSS, PH7.4); ii. Add probenecid to the final concentration of 5 mM; iii. Vortex vigorously for 1-2 minutes.
5. Medium from cell plate by flicking the cell plate on towel papers.
6. Add 10 μl of assay buffer and 10 μl of 2×dye solution to each well of the cell plate.
7. Put the cell plate on plate shaker, agitate the plate at 600 rpm for 2 minutes. Incubate the plate at 37° C. for 2 hours followed by additional 15-minute incubation at 25° C.
8. Prepare 3×compound in assay buffer: a. Dilute reference compounds to required concentration with DMSO. Add the compounds to a 384-well compound plate; b. Perform serial dilutions; c. Add 10 mM test compounds to the compound plate, perform 3-fold serial dilutions. d. […] Add 20 μl/well assay buffer to the compound plate; f. Mix the plate on plate shaker for 2 mins;
i. The normalized fluorescence reading (RFU) is calculated as shown follow, while Fmax and Fmin stand for maximum and minimum of calcium signal during defined time window: RFU=Fmax−Fmin
ii. Calculate the percentage activation by using following equation: […]
iii. Calculate EC50 by fitting % activation against log of compound concentrations with Hill equation using XLfit.

Series [2] can be described thus: Mouse liver microsomes stability with NADPH. To be noted: for half-life at 2 μM / microsomal CLint at 2 μM: male, mouse, microsomes; for Remaining Percentage (%) after 60 min, Mouse: mouse liver microsomes, with NADPH, 2 μM. As to the method: (§1) The objective of this study was to estimate in vitro metabolic stability of exemplary compounds in pooled human, male rat and male mouse liver microsomes. The concentrations of exemplary compounds in reaction systems were evaluated by LC-MS/MS for estimating the stability in pooled human, male rat and male mouse liver microsomes. The in vitro intrinsic clearances of test compounds were determined as well.
(§2) A master solution in the “Incubation Plate” containing phosphate buffer, ultra-pure H2O, MgCl2 solution and liver microsomes was made according to Table 3. The mixture was pre-warmed at 37° C. water bath for 5 minutes.
(§3) 40 μL of 10 mM NADPH solution was added to each well. The final concentration of NADPH was 1 mM. The negative control samples were prepared by replacing NADPH with 40 μL of ultra-pure H2O. Samples were prepared in duplicate. Negative controls were prepared in singlet.
(§4) The reaction was started with the addition of 4 μL of 200 μM exemplary test compounds or control compounds to each master solution to get the final concentration of 2 μM. This study was performed in duplicate.
(§5) Aliquots of 50 μL were taken from the reaction solution at 0, 15, 30, 45 and 60 minutes. The reaction solutions were stopped by the addition of 4 volumes of cold methanol with IS (100 nM alprazolam, 200 nM imipramine, 200 nM labetalol and 2 μM ketoprofen). Samples were centrifuged at 3,220 g for 40 minutes. Aliquot of 90 μL of the supernatant was mixed with 90 μL of ultra-pure H2O and then was used for LC-MS/MS analysis.
(§6) LC/MS analysis was performed for all samples from this study using a Shimadzu liquid chromatograph separation system equipped with degasser DGU-20A5R; solvent delivery unit LC-30AD; system controller SIL-30AC; column oven CTO-30A; CTC Analytics HTC PAL System. Mass spectrometric analysis was performed using an Triple Quad™ 5500 instrument.
(§7) All calculations were carried out using Microsoft Excel. Peak areas were determined from extracted ion chromatograms. The slope value, k, was determined by linear regression of the natural logarithm of the remaining percentage of the parent drug vs. incubation time curve.
(§8) Conversion of the in vitro t1/2 (min) into the in vitro intrinsic clearance (in vitro CLint, in μL/min/mg proteins) was done using the following equation (mean of duplicate determinations): […]
(In general: Liver microsomes are vesicles of endoplasmic reticulum, rich in cytochrome P450 enzymes.)

Series [3] is described as follows: Rat liver microsomes stability with NADPH. The note with it: for half-life at 2 μM / microsomal CLint at 2 μM: male, rat, microsomes; for Remaining Percentage (%) after 60 min, Rat: rat liver microsomes, with NADPH, 2 μM. The method, then:
as §1, §2, §3, §4, §5, §6, §7, §8

The next series addresses human 5-HT2A receptor (Homo sapiens (Human), UniProt P28223). Description: Radioligand ([3H]-ketanserin) binding assay on human 5-HT2A receptor. The method, then: i. Prepare the assay buffer following the table below;
ii. Preparation of 8 doses of reference and exemplary test compounds starting from 10 mM stock solution as requested by 5-fold serial dilutions with 100%;
iii. […] a. Add 50 μl/well of 0.5% (v/v) PEI to UniFilter-96 GF/B plates. Seal the plates and incubate at 4° C. for 3 hrs; b. After incubation, wash the plates 3 times with ice-cold wash buffer (50 mM Tris, pH7.4);
iv. Preparation of assay plates: a. Dilute cell membrane with assay buffer and add 330 μl/well to 96 round deep well plates to reach a concentration of 20 μg/well; b. Prepare 8 concentrations of reference or exemplary test compounds and add 110 μl/well to 96 round deep well plates; c. Dilute [3H]-ketanserin with assay buffer to 5 nM (5× final concentration) and add 110 μl/well to 96 round deep well plates.
v. Centrifuge the plate at 1000 rpm for 30 secs and then agitate at 600 rpm, R.T. for 5 min.
vi. Seal the plates and incubate the plate at 27° C. for 90 min.
vii. Stop the incubation by vacuum filtration onto GF/B filter plates followed by 4 times washing with ice-cold wash buffer (50 mM Tris, pH7.4).
ix. Seal the filter plates and add 40 μl/well of scintillation cocktail.
x. Read the plate by using a Microbeta2 microplate counter.
For reference and exemplary test compounds, the results are expressed as % Inhibition, using the normalization equation: N=100−100×(U−C2)/(C1−C2), where U is the unknown value, C1 is the average of high controls, and C2 is the average of low controls. The IC50 is determined by fitting percentage of inhibition as a function of compound concentrations with Hill equation using XLfit.

The nature of series [4]: Human liver microsomes stability with NADPH. The note with it: for Remaining Percentage (%) after 60 min, Human: human liver microsomes, with NADPH, 2 μM; for half-life at 2 μM / microsomal CLint at 2 μM: human, microsomes. The method, then: as §1, §2, §3, §4, §5, §6, §7, §8

As for `Oc1cccc2[nH]cc(C[C@H]3CCCN3)c12` [Compound I-3, (R)-3-(pyrrolidin-2-ylmethyl)-1H-indol-4-ol], the EC50 (as a rule, the midpoint of the concentration-response curve) in series [1] is less than 1 µM.

Take `[2H]C([2H])(c1c[nH]c2cccc(F)c12)[C@H]1CCCN1C([2H])([2H])[2H]` [Compound I-37, (R)-4-fluoro-3-((1-(methyl-d3)pyrrolidin-2-yl)methyl-d2)-1H-indole]: in series [2], the half-life (commonly the time needed for the level to fall by half in the phase considered) at 2 μM came to 53.7 min; the microsomal CLint (usually the capacity of the preparation to metabolise the compound, expressed as a volume cleared per time) at 2 μM stood at 25.8 µL/min/mg; the “Remaining Percentage (%) after 60 min, Mouse” value was found to be 46.10%. In series [1], the EC50 is less than 1 µM. Besides, in series [3], the half-life at 2 μM was 29.8 min; the microsomal CLint at 2 μM came out at 46.5 µL/min/mg; the “Remaining Percentage (%) after 60 min, Rat” value is 24.82%. On human 5-HT2A receptor, the IC50 (usually the concentration at which inhibition is half-maximal) fell in the range of 500 to 5000 nM. Further, in series [4], the “Remaining Percentage (%) after 60 min, Human” value is recorded as 31.93%; the half-life at 2 μM was 36.4 min; the microsomal CLint at 2 μM was 38.1 µL/min/mg.

As for `[2H]C([2H])(c1c[nH]c2cccc(Cl)c12)[C@H]1CCCN1C([2H])([2H])[2H]` [Compound I-38, (R)-4-chloro-3-((1-(methyl-d3)pyrrolidin-2-yl)methyl-d2)-1H-indole], the EC50 in series [1] was more than 10 µM. This compound had an IC50 on human 5-HT2A receptor of less than 500 nM.

As to `[2H]C([2H])([2H])N1CCC[C@@H]1Cc1c[nH]c2cccc(F)c12` [Compound I-40, (R)-4-fluoro-3-((1-(methyl-d3)pyrrolidin-2-yl)methyl)-1H-indole], in series [2], the half-life at 2 μM amounted to 63 min; the microsomal CLint at 2 μM was 22 µL/min/mg; the “Remaining Percentage (%) after 60 min, Mouse” value was 51.70%. For the same compound, the half-maximal effective concentration (EC50) in series [1] is less than 1 µM. In series [3], the half-life at 2 μM is 54.3 min; the microsomal CLint at 2 μM turned out to be 25.5 µL/min/mg; the “Remaining Percentage (%) after 60 min, Rat” value was 46.51%. This compound also showed an IC50 on human 5-HT2A receptor of less than 500 nM. Further, in series [4], the “Remaining Percentage (%) after 60 min, Human” value was found to be 35.69%; the half-life at 2 μM was determined as 40.4 min; the microsomal CLint at 2 μM worked out at 34.5 µL/min/mg.

Consider `[2H]C([2H])(c1c[nH]c2cccc(F)c12)[C@H]1CCCN1` [Compound I-41, (R)-4-fluoro-3-(pyrrolidin-2-ylmethyl-d2)-1H-indole], for which the EC50 in series [1] is 1 to 10 µM. At human 5-HT2A receptor, this compound returned an IC50 of 500 to 5000 nM.

Turning to `[2H]C([2H])(c1c[nH]c2cccc(F)c12)[C@@H]1CCCN1C([2H])([2H])[2H]` [Compound I-42, (S)-4-fluoro-3-((1-(methyl-d3)pyrrolidin-2-yl)methyl-d2)-1H-indole], the EC50 in series [1] was more than 10 µM. Moreover, at human 5-HT2A receptor, the IC50 was more than 5000 nM.

As for `[2H]C([2H])(c1c[nH]c2cccc(OCc3ccccc3)c12)[C@H]1CCCN1C([2H])([2H])[2H]` [Compound I-43, (R)-4-(benzyloxy)-3-((1-(methyl-d3)pyrrolidin-2-yl)methyl-d2)-1H-indole], the EC50 in series [1] is more than 10 µM.

For the compound `[2H]C([2H])([2H])N1CCC[C@@H]1Cc1c[nH]c2cccc(OCc3ccccc3)c12` [Compound I-45, (R)-4-(benzyloxy)-3-((1-(methyl-d3)pyrrolidin-2-yl)methyl)-1H-indole], the EC50 in series [1] is more than 10 µM.

In the case of `CN1CCC[C@@H]1Cc1c[nH]c2cccc(OCc3ccccc3)c12` [Compound I-46, (R)-4-(benzyloxy)-3-((1-methylpyrrolidin-2-yl)methyl)-1H-indole], in series [1], the EC50 was more than 10 µM.

In the case of `CN1CCC[C@@H]1Cc1c[nH]c2cccc(O)c12` [Compound I-47, (R)-3-((1-methylpyrrolidin-2-yl)methyl)-1H-indol-4-ol], the EC50 in series [1] is less than 1 µM.

On to `[2H]C([2H])([2H])N1CCC[C@@H]1Cc1c[nH]c2cccc(OC(=O)CCCCCCC/C=C\C/C=C\CCCCC)c12` [Compound I-48, 3-(((R)-1-(methyl-d3)pyrrolidin-2-yl)methyl)-1H-indol-4-yl (9Z,12Z)-octadeca-9,12-dienoate], for which, in series [2], the half-life at 2 μM came to 17.3 min; the microsomal CLint at 2 μM turned out to be 80 µL/min/mg; the “Remaining Percentage (%) after 60 min, Mouse” value stood at 9.06%. The EC50 in series [1] (read-out: h5-HT2A EC50, FLIPR, agonist mode) lay within 1 to 10 µM. Moreover, in series [3], the half-life at 2 μM worked out at 38.9 min; the microsomal CLint at 2 μM was 35.6 µL/min/mg; the “Remaining Percentage (%) after 60 min, Rat” value turned out to be 41.86%. Besides, the IC50 on human 5-HT2A receptor (read-out: h5-HT2A IC50, [3H]-ketanserin competition binding) was less than 500 nM. Besides, in series [4], the “Remaining Percentage (%) after 60 min, Human” value is 34.38%; the half-life at 2 μM was determined as 73.4 min; the intrinsic clearance (microsomal CLint) at 2 μM stood at 18.9 µL/min/mg.

Take `[2H]C([2H])(c1c[nH]c2cccc(O)c12)[C@@H]1CCCN1` [Compound I-51, (S)-3-(pyrrolidin-2-ylmethyl-d2)-1H-indol-4-ol]: the EC50 in series [1] is less than 1 µM.

Regarding `[2H]C([2H])([2H])N1CCC[C@H]1Cc1c[nH]c2cccc(OCc3ccccc3)c12` [Compound I-52, (S)-4-(benzyloxy)-3-((1-(methyl-d3)pyrrolidin-2-yl)methyl)-1H-indole], in series [1], the EC50 was more than 10 µM.

As for `[2H]C([2H])([2H])N1CCC[C@H]1Cc1c[nH]c2cccc(O)c12` [Compound I-53, (S)-3-((1-(methyl-d3)pyrrolidin-2-yl)methyl)-1H-indol-4-ol], the EC50 in series [1] was 1 to 10 µM. At human 5-HT2A receptor, this compound registered a half-maximal inhibitory concentration (IC50) of more than 5000 nM.

As to `[2H]C([2H])(c1c[nH]c2cccc(OP(=O)(O)O)c12)[C@H]1CCCN1C([2H])([2H])[2H]` [Compound I-54, (R)-3-((1-(methyl-d3)pyrrolidin-2-yl)methyl-d2)-1H-indol-4-yl dihydrogen phosphate], the half-maximal effective concentration (EC50) in series [1] is 1 to 10 µM.

Turning to `CN(C)CCc1c[nH]c2cccc(O)c12` [Psilocin, 4-hydroxy-N,N-dimethyltryptamine, reference compound], in series [2], the “Remaining Percentage (%) after 60 min, Mouse” value turned out to be 96.89%. In series [3], the “Remaining Percentage (%) after 60 min, Rat” value is 62.68%. Besides, in series [4], the “Remaining Percentage (%) after 60 min, Human” value came to 70.16%.
